{
  "source": "patent US4431639A",
  "about": "“Adjuvant for stimulating production of lymphocytes” (priority 1979, dated 1984)",
  "tested_on": "Sarcoma 180",
  "assay": "Survival / recovery of mice after intraperitoneal inoculation of Sarcoma 180",
  "format": "in vivo, mice (I.C.R.)",
  "settings": "for effectiveness against Sarcoma 180 compared with the extract of the natural herb: comparison in words; for effectiveness for treating mice inoculated with Sarcoma 180: in words",
  "procedure": "White male mice (I.C.R.) weighing 16 to 18 g.\n1 gm of the dried powder was dissolved in 160 ml of tap water and was put into the animal cages in place of the usual drinking water, so that the test mice ingested it ad libitum. […]\nA large volume of ether extract from a powder of Rhizoma Atractylis alba was produced. Some definite weights of the ether extract were dissolved in small volumes of ethanol, and then diluted with water to obtain emulsions of ether extract/water of 1 mg/100 ml, 2 mg/100 ml, 3 mg/100 ml, 4 mg/100 ml and 5 mg/100 ml.\nThe emulsions were administered to I.C.R. male mice for one month as described in Example 4, and then the mice were inoculated with 200,000 cells of Sarcoma 180 intraperitoneally. The survival time of the inoculated mice was regressed to the concentration of ether extract administered. […]\nMandelic acid, mandelic acid isoamyl ester (Atractyl), mandelic acid methyl ester, mandelic acid ethyl ester and atrolactic acid were tested by the same procedure as described in Example 6.",
  "note": "Entries after “also recorded” stand apart in the source; their conditions may differ.",
  "data": [
    {"smiles": "CC(C)CCOC(=O)C(O)c1ccccc1", "note": "(stereo not shown) [Atractyl, mandelic acid isoamyl ester]", "values": [
      {"measurement": "effectiveness against Sarcoma 180 compared with the extract of the natural herb", "value": "less effective than the extract from the natural herb; also recorded: significantly less than that of the extract of the natural herb"},
      {"measurement": "effectiveness for treating mice inoculated with Sarcoma 180", "value": "somewhat effective"}
    ]},
    {"smiles": "O=C(O)C(O)c1ccccc1", "note": "(stereo not shown) [Mandelic acid]", "values": [
      {"measurement": "effectiveness against Sarcoma 180 compared with the extract of the natural herb", "value": "less effective than the extract from the natural herb"},
      {"measurement": "effectiveness for treating mice inoculated with Sarcoma 180", "value": "somewhat effective"}
    ]},
    {"smiles": "CC(O)(C(=O)O)c1ccccc1", "note": "(stereo not shown) [atrolactic acid]", "values": [
      {"measurement": "effectiveness against Sarcoma 180 compared with the extract of the natural herb", "value": "less effective than the extract from the natural herb"},
      {"measurement": "effectiveness for treating mice inoculated with Sarcoma 180", "value": "somewhat effective"}
    ]},
    {"smiles": "CCOC(=O)C(O)c1ccccc1", "note": "(stereo not shown) [mandelic acid ethyl ester]", "values": [
      {"measurement": "effectiveness against Sarcoma 180 compared with the extract of the natural herb", "value": "less effective than the extract from the natural herb"},
      {"measurement": "effectiveness for treating mice inoculated with Sarcoma 180", "value": "somewhat effective"}
    ]},
    {"smiles": "COC(=O)C(O)c1ccccc1", "note": "(stereo not shown) [mandelic acid methyl ester]", "values": [
      {"measurement": "effectiveness against Sarcoma 180 compared with the extract of the natural herb", "value": "less effective than the extract from the natural herb"},
      {"measurement": "effectiveness for treating mice inoculated with Sarcoma 180", "value": "somewhat effective"}
    ]}
  ]
}
